Assay results as given in PMC11397024, “Strategic Fluorination to Achieve a Potent, Selective, Metabolically Stable, and Orally Bioavailable Inhibitor of CSNK2” (Molecules, 2024).

Tests used:
Assay in all cases: NanoBRET K192
Type in all cases: cell-based
AAK1 = target: T1, AAK1 (Homo sapiens, UniProt Q2M2I8); conditions: HEK293
T1 construct: purchased Promega (NanoBRET Target Engagement K192 Kinase Selectivity System)
Procedure: (§1) The K192 selectivity assay was run according to the Draft Promega technical manual, NanoBRET^TM Target Engagement K192 Kinase Selectivity System. Reagents were supplied by Promega (Promega NP 4101). For the assay, DNA from the prepared kinase vector panel plates A and B were mixed with Fugene in 96-well plates (Corning 3917) and incubated at room temperature for 30 min. The NanoLuc® Low control vector pNL1.1.CMV [Nluc/CMV] Vector (Cat.# N1091) and the transfection control vector NanoLuc®-HIPK2 Fusion Vector (Cat.# NV3221) were used as controls.
(§2) HEK293 cells were grown to 75–95% confluency in DMEM (Gibco 11995-065) supplemented with FBS (Avantor 97068-085) at 37 °C in […]. On the first day of the assay, cells were harvested and resuspended in Opti-MEM (Gibco 11058-021) supplemented with 1% FBS (Avantor 97068-085) at 2.5 × 10^5 cells per mL. A volume of 60 μL of cell suspension was mixed with 10 μL of prepared DNA (10X concentration) and 30 μL of Fugene (30 μL/mL in Opti-MEM) as outlined by Promega and incubated overnight at 37 °C in a 5% CO2 incubator.
(§3) On day two of the assay, 5 μL of 20X K10 tracer was prepared and added at concentrations recommended by Promega. Then, 10 μL of test compounds at 100 μM in Opti-MEM (diluted from a 10 mM solution in DMSO) was added to the test wells while an equivalent volume of Opti-MEM was added to the high-control wells. Plates were kept at 37 °C in a 5% CO2 incubator for two hours. After two hours, plates were allowed to equilibrate to room temperature for 15 min. A solution of 3X Complete Substrate plus Inhibitor Solution was freshly prepared, consisting of a 1:166 dilution of NanoBRET™ Nano-Glo® Substrate plus a 1:500 dilution of Extracellular NanoLuc® Inhibitor in Opti-MEM® medium without serum or phenol red. A 50 μL volume of the 3X Complete Substrate plus Inhibitor Solution was added to each assay well, including control wells. After 2–3 min, the plate was shaken at 300 RPM for 10 s, and the donor emission wavelength (450 nm) and acceptor emission wavelength (610 nm) were measured using the Glomax® Discover System.
(§4) As a quality check, the donor signal-to-background ratio was calculated for each individual kinase by dividing the mean donor signal for each kinase by the mean donor signal for the signal-to-background control wells. Fractional occupancy of the test drug for each kinase was determined using the following formula:Occupancy (%) = [1 − (Sample − Bottom)/(Top − Bottom)] × 100 where

AURKB = target: T2, AURKB (Homo sapiens, UniProt Q96GD4); conditions: HEK293
T2 construct: purchased Promega (NanoBRET Target Engagement K192 Kinase Selectivity System)
Procedure: as §1, §2, §3, §4

BMX = target: T3, BMX (Homo sapiens, UniProt P51813); conditions: HEK293
T3 construct: purchased Promega (NanoBRET Target Engagement K192 Kinase Selectivity System)
Procedure: as §1, §2, §3, §4

BTK = target: T4, BTK (Homo sapiens, UniProt Q06187); conditions: HEK293
T4 construct: purchased Promega (NanoBRET Target Engagement K192 Kinase Selectivity System)
Procedure: as §1, §2, §3, §4

CDK1 + B1 = target: T5, CDK1 + B1 (Homo sapiens, UniProt P06493); conditions: HEK293
T5 construct: purchased Promega (NanoBRET Target Engagement K192 Kinase Selectivity System)
Procedure: as §1, §2, §3, §4

CDK10 + L2 = target: T6, CDK10 + L2 (Homo sapiens, UniProt Q15131); conditions: HEK293
T6 construct: purchased Promega (NanoBRET Target Engagement K192 Kinase Selectivity System)
T6 sequence (Q15131 whole entry): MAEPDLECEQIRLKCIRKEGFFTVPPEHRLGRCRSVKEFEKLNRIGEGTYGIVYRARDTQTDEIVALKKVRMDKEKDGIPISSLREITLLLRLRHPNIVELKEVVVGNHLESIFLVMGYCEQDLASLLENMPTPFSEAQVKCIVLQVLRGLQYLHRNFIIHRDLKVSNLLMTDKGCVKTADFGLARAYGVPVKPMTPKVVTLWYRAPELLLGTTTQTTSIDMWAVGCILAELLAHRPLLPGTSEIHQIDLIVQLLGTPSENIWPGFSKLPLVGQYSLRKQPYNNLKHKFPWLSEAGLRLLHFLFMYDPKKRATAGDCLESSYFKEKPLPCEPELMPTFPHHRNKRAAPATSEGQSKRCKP
T6 sequence (Q96S94 whole entry partner): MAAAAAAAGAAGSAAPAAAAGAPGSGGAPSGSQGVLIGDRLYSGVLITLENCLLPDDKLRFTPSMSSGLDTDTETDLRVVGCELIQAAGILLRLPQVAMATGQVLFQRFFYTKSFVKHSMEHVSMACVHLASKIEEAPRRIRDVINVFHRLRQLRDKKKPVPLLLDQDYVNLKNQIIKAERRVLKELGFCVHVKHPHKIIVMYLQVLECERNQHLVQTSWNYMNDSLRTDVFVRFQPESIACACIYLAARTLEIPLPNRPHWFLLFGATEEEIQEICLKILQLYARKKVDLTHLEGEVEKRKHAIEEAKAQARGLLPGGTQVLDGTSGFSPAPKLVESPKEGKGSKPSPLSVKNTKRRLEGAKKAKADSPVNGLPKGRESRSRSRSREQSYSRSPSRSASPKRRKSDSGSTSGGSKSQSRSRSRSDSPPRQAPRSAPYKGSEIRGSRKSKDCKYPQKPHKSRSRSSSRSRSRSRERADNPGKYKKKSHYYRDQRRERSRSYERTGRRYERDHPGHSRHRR
Procedure: as §1, §2, §3, §4

CDK20 + H = target: T7, CDK20 + H (Homo sapiens, UniProt Q8IZL9); conditions: HEK293
T7 construct: purchased Promega (NanoBRET Target Engagement K192 Kinase Selectivity System)
Procedure: as §1, §2, §3, §4

CDK4 + D3 = target: T8, CDK4 + D3 (Homo sapiens, UniProt P11802); conditions: HEK293
T8 construct: purchased Promega (NanoBRET Target Engagement K192 Kinase Selectivity System)
T8 sequence (P11802 whole entry): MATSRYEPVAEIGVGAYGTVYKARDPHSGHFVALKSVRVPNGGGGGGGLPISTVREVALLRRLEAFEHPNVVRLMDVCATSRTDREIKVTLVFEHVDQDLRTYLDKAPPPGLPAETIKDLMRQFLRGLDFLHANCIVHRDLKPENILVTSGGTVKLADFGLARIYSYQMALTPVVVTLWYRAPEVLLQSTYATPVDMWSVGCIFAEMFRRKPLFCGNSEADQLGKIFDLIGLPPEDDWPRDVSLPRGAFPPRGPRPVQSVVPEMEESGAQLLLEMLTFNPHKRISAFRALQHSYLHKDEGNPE
T8 sequence (P30281 whole entry partner): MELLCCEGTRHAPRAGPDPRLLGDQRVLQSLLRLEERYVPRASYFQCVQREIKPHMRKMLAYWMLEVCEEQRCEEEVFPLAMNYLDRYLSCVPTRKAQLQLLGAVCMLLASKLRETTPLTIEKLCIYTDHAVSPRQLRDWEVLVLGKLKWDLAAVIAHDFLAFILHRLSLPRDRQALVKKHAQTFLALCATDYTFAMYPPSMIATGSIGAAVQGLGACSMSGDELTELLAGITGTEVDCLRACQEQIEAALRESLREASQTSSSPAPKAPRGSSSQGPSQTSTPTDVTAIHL
Procedure: as §1, §2, §3, §4

CDK5 + CDK5R1 = target: T9, CDK5 + CDK5R1 (Homo sapiens, UniProt Q00535); conditions: HEK293
T9 construct: purchased Promega (NanoBRET Target Engagement K192 Kinase Selectivity System)
T9 sequence (Q00535 whole entry): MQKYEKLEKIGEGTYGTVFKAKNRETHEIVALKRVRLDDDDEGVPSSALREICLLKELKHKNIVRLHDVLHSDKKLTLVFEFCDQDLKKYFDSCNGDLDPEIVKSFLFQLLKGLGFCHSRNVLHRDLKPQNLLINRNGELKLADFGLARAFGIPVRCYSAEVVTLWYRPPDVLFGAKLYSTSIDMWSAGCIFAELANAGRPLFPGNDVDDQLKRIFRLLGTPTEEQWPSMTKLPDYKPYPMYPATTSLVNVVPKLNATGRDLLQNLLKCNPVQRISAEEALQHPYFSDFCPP
T9 sequence (Q15078 whole entry partner): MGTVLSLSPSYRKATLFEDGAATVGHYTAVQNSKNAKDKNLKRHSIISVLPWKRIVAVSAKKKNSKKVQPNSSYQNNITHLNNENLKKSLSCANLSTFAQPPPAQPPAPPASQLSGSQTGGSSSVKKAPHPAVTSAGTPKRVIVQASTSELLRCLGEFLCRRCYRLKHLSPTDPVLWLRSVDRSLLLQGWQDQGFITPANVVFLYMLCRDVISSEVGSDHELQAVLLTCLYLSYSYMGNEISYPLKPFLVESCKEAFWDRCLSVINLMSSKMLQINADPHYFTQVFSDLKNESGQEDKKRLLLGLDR
Procedure: as §1, §2, §3, §4

CDKL1 = target: T10, CDKL1 (Homo sapiens, UniProt Q00532); conditions: HEK293
T10 construct: purchased Promega (NanoBRET Target Engagement K192 Kinase Selectivity System)
T10 sequence (Q00532 whole entry): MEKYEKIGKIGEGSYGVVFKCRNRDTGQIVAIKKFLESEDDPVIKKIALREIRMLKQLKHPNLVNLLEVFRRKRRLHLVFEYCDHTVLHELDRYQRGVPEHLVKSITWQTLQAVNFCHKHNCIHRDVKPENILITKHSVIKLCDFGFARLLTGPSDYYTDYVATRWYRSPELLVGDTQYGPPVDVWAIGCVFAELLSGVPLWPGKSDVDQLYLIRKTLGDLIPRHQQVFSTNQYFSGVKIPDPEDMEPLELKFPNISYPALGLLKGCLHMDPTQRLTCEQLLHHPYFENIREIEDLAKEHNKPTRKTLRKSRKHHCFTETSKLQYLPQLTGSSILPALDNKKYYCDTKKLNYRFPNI
Procedure: as §1, §2, §3, §4

CLK2 = target: T11, CLK2 (Homo sapiens, UniProt P49760)
T11 construct: expressed in transfected cells; host or cells: HEK293
T11 sequence (P49760 whole entry): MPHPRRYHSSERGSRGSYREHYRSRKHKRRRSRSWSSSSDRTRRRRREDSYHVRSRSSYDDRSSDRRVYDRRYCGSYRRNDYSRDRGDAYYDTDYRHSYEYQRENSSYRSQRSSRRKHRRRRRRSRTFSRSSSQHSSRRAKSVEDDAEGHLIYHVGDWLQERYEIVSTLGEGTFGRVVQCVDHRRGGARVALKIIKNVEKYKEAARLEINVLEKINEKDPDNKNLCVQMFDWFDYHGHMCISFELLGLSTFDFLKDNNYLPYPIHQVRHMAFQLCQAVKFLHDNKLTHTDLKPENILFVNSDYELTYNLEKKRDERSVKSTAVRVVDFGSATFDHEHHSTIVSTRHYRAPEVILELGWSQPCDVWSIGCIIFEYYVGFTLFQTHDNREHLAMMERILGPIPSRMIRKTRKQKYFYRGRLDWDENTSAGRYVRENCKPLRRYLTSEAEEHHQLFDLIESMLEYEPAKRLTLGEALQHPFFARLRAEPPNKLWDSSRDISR
Procedure: as §1, §2, §3, §4

CSNK1D = target: T12, CSNK1D (Homo sapiens, UniProt P48730); conditions: HEK293
T12 construct: purchased Promega (NanoBRET Target Engagement K192 Kinase Selectivity System)
T12 sequence (P48730 whole entry): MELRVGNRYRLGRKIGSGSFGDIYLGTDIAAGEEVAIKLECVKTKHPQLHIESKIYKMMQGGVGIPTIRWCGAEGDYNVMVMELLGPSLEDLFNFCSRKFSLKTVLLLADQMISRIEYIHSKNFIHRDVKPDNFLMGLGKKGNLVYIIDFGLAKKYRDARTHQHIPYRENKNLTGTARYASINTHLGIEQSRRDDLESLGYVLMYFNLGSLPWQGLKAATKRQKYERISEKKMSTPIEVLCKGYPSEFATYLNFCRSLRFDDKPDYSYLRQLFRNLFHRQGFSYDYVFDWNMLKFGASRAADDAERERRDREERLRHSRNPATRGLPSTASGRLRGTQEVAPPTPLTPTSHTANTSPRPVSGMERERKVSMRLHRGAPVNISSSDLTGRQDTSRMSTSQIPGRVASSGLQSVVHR
Procedure: as §1, §2, §3, §4

EPHA7 = target: T13, EPHA7 (Homo sapiens, UniProt Q15375); conditions: HEK293
T13 construct: host or cells: HEK293
Procedure: as §1, §2, §3, §4

EPHB4 = target: T14, EPHB4 (Homo sapiens, UniProt P54760); conditions: HEK293
T14 construct: purchased Promega (NanoBRET Target Engagement K192 Kinase Selectivity System)
Procedure: as §1, §2, §3, §4

FER = target: T15, FER (Homo sapiens, UniProt P16591); conditions: HEK293
T15 construct: purchased Promega (NanoBRET Target Engagement K192 Kinase Selectivity System)
Procedure: as §1, §2, §3, §4

FLT3 = target: T16, FLT3 (Homo sapiens, UniProt P36888); conditions: HEK293
T16 construct: host or cells: HEK293
Procedure: as §1, §2, §3, §4

HIPK2 = target: T17, HIPK2 (Homo sapiens, UniProt Q9H2X6); conditions: HEK293
T17 construct: purchased Promega (NanoBRET Target Engagement K192 Kinase Selectivity System)
Procedure: as §1, §2, §3, §4

ICK = target: T18, ICK (Homo sapiens, UniProt Q9UPZ9); conditions: HEK293
T18 construct: host or cells: HEK293
Procedure: as §1, §2, §3, §4

MAP3K21 = target: T19, MAP3K21 (Homo sapiens, UniProt Q5TCX8); conditions: HEK293
T19 construct: purchased Promega (NanoBRET Target Engagement K192 Kinase Selectivity System)
T19 sequence (Q5TCX8 whole entry): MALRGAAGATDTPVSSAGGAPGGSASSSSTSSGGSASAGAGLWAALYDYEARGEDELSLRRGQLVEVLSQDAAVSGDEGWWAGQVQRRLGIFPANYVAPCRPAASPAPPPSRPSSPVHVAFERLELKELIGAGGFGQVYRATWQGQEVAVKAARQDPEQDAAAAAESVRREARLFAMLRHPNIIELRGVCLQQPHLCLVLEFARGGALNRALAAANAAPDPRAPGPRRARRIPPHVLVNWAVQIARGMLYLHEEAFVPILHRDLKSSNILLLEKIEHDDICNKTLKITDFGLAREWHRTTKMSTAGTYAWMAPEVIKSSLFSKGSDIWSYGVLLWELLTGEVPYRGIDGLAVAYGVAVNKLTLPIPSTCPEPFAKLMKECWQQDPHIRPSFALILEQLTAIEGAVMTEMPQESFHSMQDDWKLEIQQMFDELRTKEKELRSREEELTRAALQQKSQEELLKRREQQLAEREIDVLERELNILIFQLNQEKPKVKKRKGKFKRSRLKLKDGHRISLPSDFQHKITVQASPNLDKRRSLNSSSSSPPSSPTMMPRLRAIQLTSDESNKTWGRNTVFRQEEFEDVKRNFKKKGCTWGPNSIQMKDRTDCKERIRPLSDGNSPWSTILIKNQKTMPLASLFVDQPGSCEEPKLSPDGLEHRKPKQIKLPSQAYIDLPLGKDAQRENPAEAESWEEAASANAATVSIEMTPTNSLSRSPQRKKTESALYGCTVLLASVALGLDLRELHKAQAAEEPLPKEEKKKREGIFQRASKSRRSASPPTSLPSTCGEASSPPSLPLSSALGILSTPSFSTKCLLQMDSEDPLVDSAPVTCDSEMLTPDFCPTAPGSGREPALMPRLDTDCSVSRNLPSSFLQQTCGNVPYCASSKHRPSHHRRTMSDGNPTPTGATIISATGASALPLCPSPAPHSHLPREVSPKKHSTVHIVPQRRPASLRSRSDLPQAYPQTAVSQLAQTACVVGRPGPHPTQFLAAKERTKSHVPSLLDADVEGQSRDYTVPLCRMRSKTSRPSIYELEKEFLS
Procedure: as §1, §2, §3, §4

MAPK8 = target: T20, MAPK8 (Homo sapiens, UniProt P45983); conditions: HEK293
T20 construct: purchased Promega (NanoBRET Target Engagement K192 Kinase Selectivity System)
Procedure: as §1, §2, §3, §4

MET = target: T21, MET (Homo sapiens, UniProt P08581); conditions: HEK293
T21 construct: purchased Promega (NanoBRET Target Engagement K192 Kinase Selectivity System)
Procedure: as §1, §2, §3, §4

NEK2 = target: T22, NEK2 (Homo sapiens, UniProt P51955); conditions: HEK293
T22 construct: purchased Promega (NanoBRET Target Engagement K192 Kinase Selectivity System)
Procedure: as §1, §2, §3, §4

NEK3 = target: T23, NEK3 (Homo sapiens, UniProt P51956); conditions: HEK293
T23 construct: host or cells: HEK293
T23 sequence (P51956 whole entry): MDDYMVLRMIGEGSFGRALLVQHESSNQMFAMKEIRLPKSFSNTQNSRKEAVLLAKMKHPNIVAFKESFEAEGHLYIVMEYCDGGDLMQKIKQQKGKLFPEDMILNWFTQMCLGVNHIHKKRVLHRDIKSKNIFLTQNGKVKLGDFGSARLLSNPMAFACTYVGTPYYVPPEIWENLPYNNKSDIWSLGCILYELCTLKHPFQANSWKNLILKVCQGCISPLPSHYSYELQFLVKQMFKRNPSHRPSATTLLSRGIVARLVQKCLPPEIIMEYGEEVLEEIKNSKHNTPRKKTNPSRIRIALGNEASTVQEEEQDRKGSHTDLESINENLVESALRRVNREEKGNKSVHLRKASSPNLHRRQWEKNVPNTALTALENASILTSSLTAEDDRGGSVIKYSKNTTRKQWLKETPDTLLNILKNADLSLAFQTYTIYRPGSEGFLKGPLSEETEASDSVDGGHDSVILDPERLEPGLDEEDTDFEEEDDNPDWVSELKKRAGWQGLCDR
Procedure: as §1, §2, §3, §4

NEK4 = target: T24, NEK4 (Homo sapiens, UniProt P51957); conditions: HEK293
T24 construct: purchased Promega (NanoBRET Target Engagement K192 Kinase Selectivity System)
Procedure: as §1, §2, §3, §4

PRKAA2 = target: T25, PRKAA2 (Homo sapiens, UniProt P54646); conditions: HEK293
T25 construct: purchased Promega (NanoBRET Target Engagement K192 Kinase Selectivity System)
Procedure: as §1, §2, §3, §4

SGK1 = target: T26, SGK1 (Homo sapiens, UniProt O00141); conditions: HEK293
T26 construct: purchased Promega (NanoBRET Target Engagement K192 Kinase Selectivity System)
Procedure: as §1, §2, §3, §4

TNNI3K = target: T27, TNNI3K (Homo sapiens, UniProt Q59H18); conditions: HEK293
T27 construct: purchased Promega (NanoBRET Target Engagement K192 Kinase Selectivity System)
Procedure: as §1, §2, §3, §4

ULK3v1 = target: T28, ULK3v1 (Homo sapiens, UniProt Q6PHR2); conditions: HEK293
T28 construct: host or cells: HEK293
Procedure: as §1, §2, §3, §4

In the case of CCC(=O)Nc1cc(Nc2cc(NC3CC3)n3ncc(C#N)c3n2)c(F)cc1N1CCC[C@H](NC)C1 [Compound 2, (S)-N-(5-((3-cyano-7-(cyclopropylamino)pyrazolo[1,5-a]pyrimidin-5-yl)amino)-4-fluoro-2-(3-(methylamino)piperidin-1-yl)phenyl)propionamide], the receptor occupancy at 10 µM (AAK1) was 17.8%, the receptor occupancy at 10 µM (AURKB) was 1.4% and the receptor occupancy at 10 µM (BMX) was 0.6%. The receptor occupancy at 10 µM (BTK) was 3%, the receptor occupancy at 10 µM (CDK1 + B1) was 6.2% and the receptor occupancy at 10 µM (CDK10 + L2) was 13.6%. For the same molecule, the receptor occupancy at 10 µM (CDK20 + H) was 23.4%, the receptor occupancy at 10 µM (CDK4 + D3) was 8.5% and the receptor occupancy at 10 µM (CDK5 + CDK5R1) was 10.8%. The receptor occupancy at 10 µM (CDKL1) was 1.5%, the “% occupancy at 10 μM” value (CLK2; CLK2, HEK293) was 85% and the receptor occupancy at 10 µM (CLK2; HEK293, CLK2) was 84.8%. The receptor occupancy at 10 µM (CSNK1D) was 9.4%, the receptor occupancy at 10 µM (EPHA7) was -2.5% and the receptor occupancy at 10 µM (EPHB4) was 4.4%. The receptor occupancy at 10 µM (FER) was 3.1%, the receptor occupancy at 10 µM (FLT3) was -13.5% and the receptor occupancy at 10 µM (HIPK2) was 21.5%. It also gave a receptor occupancy at 10 µM (ICK) of -6.1%, a receptor occupancy at 10 µM (MAP3K21) of 4.8% and a receptor occupancy at 10 µM (MAPK8) of 0.6%. It also gave a receptor occupancy at 10 µM (MET) of 12.3%, a receptor occupancy at 10 µM (NEK2) of 4.2% and a receptor occupancy at 10 µM (NEK3) of -11.1%. It also gave a receptor occupancy at 10 µM (NEK4) of 7.8%, a receptor occupancy at 10 µM (PRKAA2) of 0.5% and a receptor occupancy at 10 µM (SGK1) of 1.5%. The receptor occupancy at 10 µM (TNNI3K) was 8% and the receptor occupancy at 10 µM (ULK3v1) was -7.4%.
